In patent US9457056B2, “Peptides comprising alternating hydrophobic and anionic amino acids for treatment of osteoporosis” (Ben-Gurion University of the Negev Research and Development …, priority 2007, dated 2016):
Entries after “also recorded” stand apart in the source; their conditions may differ. Ends that are not written are not given here.

What was measured:
Sprague-Dawley rats [1] = experiment: Antigenicity (immunity) test, single intramuscular administration of hydrogel; assay type: in vivo, rat; settings: single i.m. hydrogel, 7.5 times maximum estimated human dose, 14 days
Experimental: Immunity tests were performed to determine the safety of the compositions of the present invention. […] The control group was injected with saline. Rats were scarified after 14 days, blood was withdrawn for future hematology and biochemistry tests.

[2] = Formation of hydrogels by additional peptides; assay type: physicochemical; settings: 4% weight in 100 μl NaOH solution
Text: Additional peptides were studies in order to elucidate the role of termini Proline residue in hydrogel formation, to test the effect of peptide length and peptide termini protecting groups.

Sprague-Dawley rats [3] = experiment: In vivo toxicity, single subcutaneous administration of hydrogel
Experimental: A control group was injected with saline. Rats were sacrificed after 14 days. Hematology and biochemistry blood tests were performed, the injected area was excised and examined as well as other internal organs.

[4] = Effect of Ca+2 ions on hydrogel formation; assay type: physicochemical; design: key: Hydrogel formation (✓); * partial formation of hydrogel over hours; settings: peptide final concentration 1.34% weight
Experimental: With the addition of Ca^+2 ions to the solution of the peptide the system may form a hydrogel. These hydrogels are obtained at peptide concentrations smaller and at pH values higher than those without the ions. […] It is possible that the Ca^+2 may also induce cross linking between strands in a mechanism similar to that of alginate hydrogel formation. The concentration of Ca^+2 ions in the hydrogel are a few times larger than in the body serum (2.5 mM). This is envisaged to yield a better environment for the bone forming osteoblast cells. In any event, the Ca^+2 provides an additional parameter to control the hydrogel rheological and stability properties.
Peptides, 2% (w/v) in the liquid state were dissolved in 0.05 M NaOH to yield 7.0<pH<7.5 solution.

human stomach = settings: healthy volunteers, doses prescribed for osteoporosis and Pagets disease of bone; cited from earlier work
SaOS2 cells = experiment: Quantitative evaluation of SaOS2 growth on 2D hydrogels (LIVE/DEAD Viability/Cytotoxicity Kit); assay type: cell-based; settings: 3% w/v hydrogel, vs uncoated wells
Experimental: On 2D hydrogels: Quantitative studies of cell proliferation were performed in 2D systems of PFD-13 (3% w/v) hydrogels that were formed with DMEM+bicarbonate at pH ˜7.0 in 96-wells plates.
The plates were sterilized by gamma irradiation (5000 rad). 50 μl of culture media were pipette on top of each hydrogel for conditioning. After 1 h at room temp, SaOS2 cells were seeded on top of the hydrogels. Single cell suspensions obtained after trypsinization which diluted to concentration of 1×10^5 cells/1 ml. 50 μl of this cell suspension was seeded on top of each hydrogel. Triplicates of none coated wells were seeded and served as control. After 1 h of incubation, medium was added to complete the volume to 200 μl in each well ([…] and 150 μl in the uncoated wells). Culture medium was exchanged twice a week. Viability of the cells was evaluated every week, over a month, using the LIVE/DEAD Viability/Cytotoxicity Kit (Molecular Probes, Invitrogen, France) following the manufacturer's instructions. […] Ethidium-III enters dead cells with damaged membranes and undergoes a 40-fold enhancement of fluorescence upon binding to their DNA, leading to a red fluorescent signal. The plates were measured in a plate reader (calcein: Ex=495 nm, Em=515 nm. ethidium: Ex=530 nm, Em=635 nm). After measuring the medium fluorescence, the gain was set constant for each probe. […]

[5] = single s.c. hydrogel, about 10 times clinically relevant amount

Compound | Resultant pH ([2]; NaOH conc. 0.03) | Resultant pH ([2]; NaOH conc. 0.05) | Self supporting gel formation assigned + ([2]; NaOH conc. 0.05) | Hydrogel formation upon the addition of CaCl2 sol. ([4]; Ca+2 final concentration 20 mM) | Hydrogel formation upon the addition of CaCl2 sol. ([4]; Ca+2 final concentration 27 mM) | Hydrogel formation upon the addition of CaCl2 sol. ([4]; Ca+2 final concentration 33 mM) | also measured
Ac-PDFDFDFDFDFDP-NH2 [Ac-Pro-Asp-(Phe-Asp)5-Pro-NH2] | ~6 | >7.5 | Viscous liquid | – | – | – | Appearance during the experiment (Sprague-Dawley rats [1]): appeared normal; Survival (Sprague-Dawley rats [1]): All rats survived; Levels of LDH (Sprague-Dawley rats [3]; rats sacrificed after 7 days): slightly high levels; Levels of LDH (Sprague-Dawley rats [3]; rats sacrificed after 14 days): normal; Behavior (Sprague-Dawley rats [3]; [5]): no signs of abnormal behavior; Body weight compared to control group (Sprague-Dawley rats [3]; [5]): did not lose weight; Internal organs (Sprague-Dawley rats [3]; [5]): appeared normal; Survival (Sprague-Dawley rats [3]; [5]): All rats survived
PEFEFEFEFEFEP [PFE-13, PE(FE)5P] | – | – | – | ✓ | ✓ | ✓ | –
Pro-Asp-(Phe-Asp)6 (chain 1 PDFDFDFDFDFDFD; chain 2 PDFDFDFDFDFDFD) | ~6 | ~7 | after several hrs. | – | – | – | –
NCCCC(O)(P(=O)(O)O)P(=O)(O)O [Alendronate, alendronate] | – | – | – | – | – | – | Gastric injury (human stomach): cause erosions and ulcers in the human stomach
PDLDLDLDLDLDP [PLD-13, PD(LD)5P] | – | – | – | * | * | * | –
PELELELELELEP [PLE-13, PE(LE)5P] | – | – | – | ✓ | ✓ | ✓ | –
(Phe-Asp)6 (chain 1 FDFDFDFDFDFD; chain 2 FDFDFDFDFDFD) | ~6 | ~7 | – | – | – | – | –
Pro-Asp-Phe-Asp (PDFD; printed: Pro-Asp-Phe-Asp) | ~3 | ~4 | liquid | – | – | – | Self supporting gel formation assigned + ([2]; NaOH conc. 0.03): liquid
PDFDFDFDFDFDP [PFD-13, PD(FD)5P] | – | – | – | – | ✓ | ✓ | Cytotoxicity (EthD-III staining) (SaOS2 cells): not significant; also recorded: non toxic to the cells
